The conditions of data set [1]: cited from earlier work.
A short description of data set [2]: Estimated unbound plasma concentration, CSF/plasma penetration and projected maximum CSF concentration extrapolated from published pharmacokinetic data. Particulars: for CSF/plasma ratio: this patient. The procedure:
(§1) CSF samples were immediately frozen at −80 °C and shipped overnight on dry ice. […] Results are presented as the mean (±SD) of the two measured CSF concentrations. Additionally, estimated corresponding unbound plasma concentrations at the time of CSF collection were extrapolated for each agent from published pharmacokinetic data in order to establish an estimate of the degree of CSF/plasma penetration. This % CSF/plasma penetration was then utilized to predict the maximum post-dose CSF concentration on the basis of the peak free plasma concentration (fCmax) and the time of fCmax (Tmax) of each agent. Finally, these predictions were evaluated against published data, all of which were restricted to animal studies except for tigecycline.

On the set-up of data set [3]: method as in PMID 31295511. The conditions noted are these: average in uninfected rats; cited from earlier work.
For data set [4] the following is noted: cited from earlier work. The text has this: Almost exactly 2 days had elapsed between the time of the patient’s last oritavancin dose and the time of CSF collection.
This is another data set of the same source.

On the set-up of data set [5]: method as in PMID 16982782, PMID 17043116, PMID 21585240, PMID 25216547. Particulars: cited from earlier work.
The next data set relates to VREf isolates. Nature of the data set: microbe, parasite or virus in culture. Particulars: for MIC: modal MIC of triplicate, CLSI guidelines. The procedure: (§2) Initial organism identification and susceptibility determination were performed via MALDI-TOF MS (Bruker Daltonics, Billerica, MA, USA) and MicroScan Walkaway (Beckman Coulter, Brea, CA), respectively, in the clinical microbiology laboratory. Pure colonies of the VREf isolates cultured from the CSF on hospital days 33 and 57 and from blood on days 35 and 52 were sub-cultured to BD BBL chocolate II agar slants (Becton, Dickinson and Company, Sparks, MD, USA) and shipped immediately overnight to the research laboratory where all subsequent testing was performed. Identification and resistance marker detection was confirmed via the Verigene Gram-positive blood culture assay (Luminex, Northbrook, IL, USA).
Minimum inhibitory concentrations were determined in triplicate according to CLSI guidelines. Modal MIC values are reported.

The conditions of data set [6]: cited from earlier work. The source holds these as a separate data set.
A further data set concerns VREf. Nature of the data set: microbe, parasite or virus in culture. In kind it is cell-based, Enterococcus faecium. The procedure:
as §2

Data set [7] relates to VREf isolate cultured from the CSF on hospital day 33. The experiment in a line: Time-kill experiments. In kind it is cell-based, Enterococcus faecium. The conditions noted are these: at mean measured CSF concentration; triplicate.
Procedure: Next, the 5 drugs were tested in combination at their respective extrapolated maximal CSF concentration as described.
A short description of data set [8]: CSF drug concentrations from day 57 lumbar puncture by LC-MS/MS. Particulars: one patient, systemic dosing at steady state, LLOQ 0.001 mg/L, mean of two CSF tubes, time after last dose: gentamicin 77:30, oritavancin 46:54, tigecycline 8:27, tedizolid 8:25, quinupristin/dalfopristin 2:00 h:m. The procedure:
as §1

On the set-up of data set [9]: method as in PMID 11408247. Particulars: animal study; cited from earlier work.
[10] abbreviates: Enterococcus faecium, VREf isolate from CSF, hospital day 33.
Where [11] appears, read: Enterococcus faecium, VREf isolate from CSF, hospital day 57.
The mark [12] stands for this setting: Enterococcus faecium, VREf isolate from blood, hospital day 35.
Where [13] appears, read: Enterococcus faecium, VREf isolate from blood, hospital day 52.
[14] abbreviates: VREf isolate from CSF, hospital day 33, CLSI M100-S30 unless footnoted (b: CLSI vancomycin-susceptible E. faecalis; c: FDA E. faecalis; d: EUCAST v.10.0 E. faecium).
Where [15] appears, read: VREf isolate from CSF, hospital day 57, CLSI M100-S30 unless footnoted.
The mark [16] stands for this setting: VREf isolate from blood, hospital day 35, CLSI M100-S30 unless footnoted.
The mark [17] stands for this setting: VREf isolate from blood, hospital day 52, CLSI M100-S30 unless footnoted.

Converted amounts (≈) assume the structure as drawn. Where two headings read alike, the source gives them in different places. Numbered stars: 1 amine (or outer) side, 2 acyl side, 3 side chain; on linkers, the order of the positions; unused ones are H or OH. Bridge positions count the residues as written; N and C are the ends. Square brackets hold non-standard residues; d marks the D form. Peptide text beside a SMILES is read from it. * marks the point of attachment. X1 = O=C1C[C@@H](C(=O)[*:2])N([*:1])C[C@H]1CS[C@@H]1CN2CCC1CC2; NMePhe(4-NMe2) = CN[C@@H](Cc1ccc(N(C)C)cc1)C(=O)O; Picolinoyl(3-OH) = O=C(c1ncccc1O)*; Phg = N[C@H](C(=O)O)c1ccccc1; dAbu = CC[C@@H](N)C(=O)O

Usually half-life stands for the time in which the quantity being followed falls by half.

Turning to `CC[C@H]1NC(=O)[C@@H](NC(=O)c2ncccc2O)[C@@H](C)OC(=O)[C@H](c2ccccc2)NC(=O)[C@@H]2CC(=O)[C@H](CS[C@@H]3CN4CCC3CC4)CN2C(=O)[C@H](Cc2ccc(N(C)C)cc2)N(C)C(=O)[C@@H]2CCCN2C1=O` [Quinupristin] ({Picolinoyl(3-OH)}-T[dAbu]P[NMePhe(4-NMe2)][X1][Phg]; ester 1-C), the “Published % CSF/Plasma Penetration” value in data set [1] (rabbit, in vivo) was 0 [23, 27] %.
With `Cn1nnc(-c2ccc(-c3ccc(N4C[C@H](CO)OC4=O)cc3F)cn2)n1` [Tedizolid], the “projected maximal CSF concentration at plasma Tmax” value (from here on “projected maximal CSF concentration”) in data set [2] (in vivo) is “roughly 0.3 mg/L”. Moreover, the CSF/plasma ratio result in data set [2] (point estimate) was “approximately 50%”. In data set [3], the “Published % CSF/Plasma Penetration” value was 2.2 [16] %. Moreover, the half-life in [4] (in vivo, iv) is reported as 12 h. Also, in data set [4] (in vivo, iv), the “steady-state plasma fCmax” value is recorded as 0.6 mg/L. In addition, the protein binding in data set [5] is on record as 80%. Besides, the MIC in the data set with VREf isolates (setting [10]), in the data set with VREf isolates (setting [11]), in the data set with VREf isolates (setting [12]) and with VREf isolates (setting [13]) was 2 µg/mL each time.
With `CN(C)c1cc(NC(=O)CNC(C)(C)C)c(O)c2c1C[C@H]1C[C@H]3[C@H](N(C)C)C(O)=C(C(N)=O)C(=O)[C@@]3(O)C(O)=C1C2=O` [Tigecycline], the “projected maximal CSF concentration” value in data set [2] (in vivo) is on record as “approximately 0.197 mg/L”. Besides, the CSF/plasma ratio in data set [2] (point estimate) is 65.5%. The penetration ratios in data set [6] (a patient with cerebritis due to Acinetobacter) is given as 7–36%. In [6] (human, in vivo), the “Published % CSF/Plasma Penetration” value is 5–41 [21, 22] %. Also, the half-life result in data set [4] (in vivo) is recorded as “≈ 30 h”. The MIC with VREf isolates (setting [10]), in the data set on VREf isolates (setting [11]), with VREf isolates (setting [12]) and with VREf isolates (setting [13]) was 0.25 µg/mL each time. Besides, the “Interpretive Category” value with VREf isolates (setting [14]), with VREf isolates (setting [15]), in the data set on VREf isolates (setting [16]) and in the data set on VREf isolates (setting [17]) was “S” throughout.
For the compound `CC(=O)NC[C@H]1CN(c2ccc(N3CCOCC3)c(F)c2)C(=O)O1` [Linezolid], the CSF penetration in data set [6] (human, in vivo) is 66–85%. The MIC was found to be 2 µg/mL (≈ 5.93 µM) against VREf (Enterococcus faecium, VREf blood isolate returning after 11 days of daptomycin therapy, daptomycin by broth microdilution); 16 µg/mL in the data set on VREf isolates (setting [10]); 16 µg/mL in the data set with VREf isolates (setting [11]); 16 µg/mL in the data set with VREf isolates (setting [12]); 16 µg/mL in the data set with VREf isolates (setting [13]). Moreover, the “local laboratory susceptibility result” value in the data set on VREf (VREf blood isolate of hospital day 22) is “resistance”. For the same compound, the susceptibility category result in the data set on VREf (VREf blood isolate returning after 11 days of daptomycin therapy) is recorded as “susceptible”. The “Interpretive Category” value in the data set on VREf isolates (setting [14]), in the data set on VREf isolates (setting [15]), in the data set on VREf isolates (setting [16]) and with VREf isolates (setting [17]) was “R” in each case.
As to `CN[C@H](CC(C)C)C(=O)N[C@H]1C(=O)N[C@@H](CC(N)=O)C(=O)N[C@H]2C(=O)N[C@H]3C(=O)N[C@H](C(=O)N[C@H](C(=O)O)c4cc(O)cc(O)c4-c4cc3ccc4O)[C@H](O[C@H]3C[C@](C)(N)[C@@H](O)[C@H](C)O3)c3ccc(c(Cl)c3)Oc3cc2cc(c3O[C@@H]2O[C@H](CO)[C@@H](O)[C@H](O)[C@H]2O[C@H]2C[C@](C)(NCc3ccc(-c4ccc(Cl)cc4)cc3)[C@@H](O)[C@H](C)O2)Oc2ccc(cc2Cl)[C@H]1O` [Oritavancin], the “bacterial growth (increase) at 24 h compared to the starting inoculum” value in [7] was 0.69 log10 CFU/mL. For the same compound, the “projected maximal CSF concentration” value in data set [2] (point estimate) was 0.014 mg/L. The CSF/plasma ratio in data set [2] (point estimate) is given as 0.07%. Further, the “Mean (±SD) Measured CSF Concentration” value in [8] amounted to 0.013 ± 0.005 mg/L. Further, the fCmax in data set [4] (plasma, after a 1200 mg dose, published pharmacokinetic data, ref not given) is on record as 20.7 mg/L. In addition, the half-life in data set [4] (plasma, published pharmacokinetic data, ref not given) is 245 h. Further, the MIC in the data set with VREf isolates (VREf isolate from CSF, hospital day 33) was 0.25 µg/mL; with VREf isolates (VREf isolate from CSF, hospital day 57), 0.25 µg/mL; with VREf isolates (VREf isolate from blood, hospital day 35) it was 0.25 µg/mL; in the data set on VREf isolates (VREf isolate from blood, hospital day 52), 0.25 µg/mL. Besides, the “Published % CSF/Plasma Penetration” value in data set [9] is 1–5 [26] %.
Regarding `CCN(CC)CCS(=O)(=O)[C@@H]1CCN2C(=O)c3coc(n3)CC(=O)C[C@H](O)/C=C(C)/C=C/CNC(=O)/C=C/[C@@H](C)[C@@H](C(C)C)OC(=O)[C@@H]12` [Dalfopristin], the “Published % CSF/Plasma Penetration” value in data set [1] (rabbit pneumococcal meningitis data) was 0 [23, 27] %.
As to `CN(C)[C@@H]1C(O)=C(C(N)=O)C(=O)[C@@]2(O)C(O)=C3C(=O)c4c(O)c(NC(=O)CN5CCCC5)cc(F)c4C[C@H]3C[C@@H]12` [Eravacycline], the CNS penetration entry in data set [1] (rabbits) is given as “virtually zero”. In addition, the MIC in the data set with VREf isolates (setting [11]) and in the data set on VREf isolates (setting [13]) was 0.12 µg/mL each time. The “Interpretive Category” value in the data set with VREf isolates (setting [15]) and with VREf isolates (setting [17]) was “S” each time.

Source of the values: PMC8482274, “Inadequate Cerebrospinal Fluid Concentrations of Available Salvage Agents Further Impedes the Optimal Treatment of Multidrug-Resistant Enterococcus faecium Meningitis and Bacteremia” (Infectious Disease Reports, 2021).
